Values of other authors, collected in US20200306292A1, “METHOD FOR TREATING ACUTE HYPOVOLEMIA” (Wonder Spray, LLC, priority 2019, published 2020).

Tests used:
[1] = test system: E. coli; settings: (2.6 ppm) HOCl, within 5 minutes
[2] = test system: E. coli; settings: 50 mM (2.6 ppm) HOCl, within 5 minutes
[3] = test system: f2 RNA; settings: naked f2 RNA compared with RNA in intact phage
[4] = inhalation

Compound: OCl [HOCl, hypochlorous acid]
- growth of E. coli [1]: completely inhibited
- inhibiting the DNA synthesis [2]: ninety-six
- inactivation of naked f2 RNA [3]: inactivated naked f2 RNA at the same rate as RNA in intact phage
- adverse effects on inhaling the aerosolized form [4]: no adverse effects
